Tests used:
[1] = test system: Wistar rats with chronic myocardial infarction (MI); assay: Plasma noradrenaline (HPLC) and ANF (RIA) levels in MI rats; type: in vivo, rat; conditions: for Plasma NA (noradrenaline) level / Plasma ANF (atrial natriuretic factor): three weeks, mean ± SEM
Procedure: The following studies were performed on male Wistar rats (270 to 320 g, Harlan Zeist, Netherlands). The rats were kept in rooms with a 12 h light/dark cycle and had free access to standard rat diet and water. The animals underwent coronary artery ligation (MI rats) or sham operation without ligation (sham rats). After 24 hours the MI rats were randomized and implanted with osmotic minipumps (Alzet, Model 2001) in order to administer moxonidine in a dose of 3 or 6 mg/kg-day s.c. (subcutaneously) or only operated on without pump implant. The moxonidine treatment was continued up to the end of the experiment three weeks after the surgical procedure. The left anterior descending coronary artery was ligated under pentobarbital anesthesia (60 mg/kg, i.p.). Brief description: after intubation of the trachea, an incision was made in the skin over the 4th intercostal space. The overlaying muscles were separated and kept aside. […] The pericardium was opened. The heart was left in situ and a 6-0 silk suture was placed below the left coronary artery in the vicinity of the origin of the pulmonary artery. The suture was tightened. Sham rats were subjected to the same procedure but without actual ligation. The ribs were pulled together with 3-0 silk suture. The muscles were then returned to their original position and the skin was sutured. 19 days after the surgical procedure for coronary artery ligation the rats were again anesthetized with pentobarbital and a catheter (PE-10, heat-sealed with PE-50) was introduced through the femoral artery and placed in the abdominal aorta. The catheter was advanced subcutaneously as far as the animals' neck, where it was allowed to exit and was fixed and closed at the exit site. The rats were allowed a 2-day recovery period. On the day of sampling the catheter was lengthened with a heparin-treated, saline-filled tube and two 1-ml blood samples were collected after at least 60 minutes. Blood was collected in pre-cooled sample pots (syringes) prepared with 10 μl EDTA (0.1M). After centrifugation the plasma was collected in pre-cooled tubes containing either 1.2 mg glutathione or 10 μl aprotinin (100 KIU; KIU=kilo international units) in order to determine either catecholamines or atrial natriuretic factor (ANF). The tubes were stored at −80° C. The plasma concentrations of noradrenaline, adrenaline and dopamine were determined by HPLC, whereas the concentrations of ANF were analyzed using an RIA test. The data obtained were expressed as group means ± SEM (standard error of the mean) unless otherwise stated. Only data of infarcted hearts with an infarct area covering the major portion of the free heart wall of the left ventricle were included in the evaluation since smaller infarct areas are usually fully compensated hemodynamically. The data were analyzed by one-way analysis of variance (ANOVA) followed by post-hoc Bonferroni analysis. Differences in the structural parameters in moxonidine treated and untreated infarcted hearts were determined by Student t-test independently for the two groups.

[2] = test system: Wistar rats with chronic myocardial infarction (MI); assay: Wistar rats with chronic myocardial infarction (coronary artery ligation): body weight, heart weight, heart rate, MAP, mortality; type: in vivo; conditions: for Heart rate: conscious infarct rats
Procedure: The following studies were performed on male Wistar rats (270 to 320 g, Harlan Zeist, Netherlands). The rats were kept in rooms with a 12 h light/dark cycle and had free access to standard rat diet and water. The animals underwent coronary artery ligation (MI rats) or sham operation without ligation (sham rats). After 24 hours the MI rats were randomized and implanted with osmotic minipumps (Alzet, Model 2001) in order to administer moxonidine in a dose of 3 or 6 mg/kg-day s.c. (subcutaneously) or only operated on without pump implant. The moxonidine treatment was continued up to the end of the experiment three weeks after the surgical procedure.
The left anterior descending coronary artery was ligated under pentobarbital anesthesia (60 mg/kg, i.p.). Brief description: after intubation of the trachea, an incision was made in the skin over the 4th intercostal space. The overlaying muscles were separated and kept aside. The animals were then placed on positive pressure ventilation (rate 65 to 70/min, stroke volume 3 ml) and the thoracic cavity was opened by cutting the intercostal muscles. The pericardium was opened. The heart was left in situ and a 6-0 silk suture was placed below the left coronary artery in the vicinity of the origin of the pulmonary artery. The suture was tightened. Sham rats were subjected to the same procedure but without actual ligation. The ribs were pulled together with 3-0 silk suture. The muscles were then returned to their original position and the skin was sutured.
The data obtained were expressed as group means ± SEM (standard error of the mean) unless otherwise stated. Only data of infarcted hearts with an infarct area covering the major portion of the free heart wall of the left ventricle were included in the evaluation since smaller infarct areas are usually fully compensated hemodynamically. The data were analyzed by one-way analysis of variance (ANOVA) followed by post-hoc Bonferroni analysis. Differences in the structural parameters in moxonidine treated and untreated infarcted hearts were determined by Student t-test independently for the two groups.
Four groups of rats were studied: 2 moxonidine-treated infarct rats (dosage 3 and 6 mg/kg·day), untreated infarct rats and sham-operated control rats (SHAM rats). Coronary artery ligation produced a main infarction in the free wall of the left ventricle. Total mortality of the experimental animals was 29% and was the same in both infarct groups. Data of five rats of the 6 mg/kg·day group had to be excluded since their infarct area was too small. The results of the tests are summarized in Table 1 for experiments with a dosage of 6 mg/kg·day and for a dosage of 3 mg/kg·day, and are explained in the following. The results shown in Table 1 comprise the data of groups of 7 to 14 rats with the exception of the collagen measurements, for which the data refer to groups of 6 to 7 rats.

[3] = test system: Wistar rats with chronic myocardial infarction (MI); assay: Measurement of cardiac interstitial collagen (Sirius red) in MI rats; type: in vivo, rat; conditions: interventricular septum, infarct rats, three weeks, mean ± SEM
Procedure: The following studies were performed on male Wistar rats (270 to 320 g, Harlan Zeist, Netherlands). The rats were kept in rooms with a 12 h light/dark cycle and had free access to standard rat diet and water. The animals underwent coronary artery ligation (MI rats) or sham operation without ligation (sham rats). After 24 hours the MI rats were randomized and implanted with osmotic minipumps (Alzet, Model 2001) in order to administer moxonidine in a dose of 3 or 6 mg/kg-day s.c. (subcutaneously) or only operated on without pump implant. The moxonidine treatment was continued up to the end of the experiment three weeks after the surgical procedure. The left anterior descending coronary artery was ligated under pentobarbital anesthesia (60 mg/kg, i.p.). Brief description: after intubation of the trachea, an incision was made in the skin over the 4th intercostal space. […] The quantity of interstitial collagen was determined on 6 to 7 hearts randomly selected from each experimental group. […] The data obtained were expressed as group means ± SEM (standard error of the mean) unless otherwise stated. […] The data were analyzed by one-way analysis of variance (ANOVA) followed by post-hoc Bonferroni analysis. Differences in the structural parameters in moxonidine treated and untreated infarcted hearts were determined by Student t-test independently for the two groups.

[4] = infarct rats, moxonidine 6 mg/kg daily s.c.
[5] = infarct rats, moxonidine 3 mg/kg daily s.c., three weeks, mean ± SEM
[6] = infarct rats, moxonidine 6 mg/kg daily s.c., three weeks, mean ± SEM

Q: How did the “Plasma noradrenaline levels (in words)” value ([1]; infarct rats, 3 mg/kg·day group) turn out when COc1nc(C)nc(Cl)c1NC1=NCCN1 [moxonidine, 4-chloro-5-[(4,5-dihydro-1H-imidazol-2-yl)-amino]-6-methoxy-2-methyl-pyrimidine] was run?
A: The value was “clearly reduced”.

Q: What about the “Plasma noradrenaline levels (in words)” value ([1]; infarct rats, 6 mg/kg·day group, versus sham rats) of the same molecule?
A: The value was “almost half the values of the sham rats”.

Q: What about the “Plasma NA (noradrenaline) level” value ([1]; infarct rats, moxonidine 3 mg/kg daily s.c.) of the same molecule?
A: Its value is 345 ± 108 pg/mL.

Q: And the “Plasma ANF (atrial natriuretic factor)” value ([1]; infarct rats, moxonidine 3 mg/kg daily s.c., n-3)?
A: Its value is “(54 ± 2, n-3) pg/ml”.

Q: What about the “Plasma ANF (atrial natriuretic factor)” value [1, 4] of the same molecule?
A: Its value is 61 ± 8 pg/mL.

Q: What about the “Plasma NA (noradrenaline) level” value [1, 4] of the same molecule?
A: The value was 96 ± 20 pg/mL.

Q: What about the “Plasma ANF levels (in words)” value ([1]; moxonidine-treated infarct rats versus untreated infarct rats) of the same molecule?
A: The value was “unchanged compared to those of untreated infarct rats”.

Q: And the “Plasma noradrenaline levels (in words)” value ([1]; moxonidine-treated infarct rats, dose not stated, versus sham rats)?
A: Its value is “about half the value found for the sham rats”.

Q: And the Heart rate ([2]; moxonidine 3 mg/kg daily s.c., three weeks, mean ± SEM)?
A: The Heart rate was 334 ± 12 beats/min.

Q: What about the Heart rate ([2]; moxonidine 6 mg/kg daily s.c., three weeks, mean ± SEM) of the same molecule?
A: Its Heart rate is 321 ± 6 beats/min.

Q: What about the Heart weight [2, 5] of the same molecule?
A: The Heart weight was 1408 ± 104 mg.

Q: What about the Heart/Body weight ratio [2, 5] of the same molecule?
A: Its Heart/Body weight ratio is 4.7 ± 0.4.

Q: And the “MAP (mean arterial pressure)” value [2, 5]?
A: Its value is 87 ± 3 mmHg.

Q: What about the Heart weight [2, 6] of the same molecule?
A: Its Heart weight is 1076 ± 24 mg.

Q: What about the “MAP (mean arterial pressure)” value [2, 6] of the same molecule?
A: The value was 100 ± 5 mmHg.

Q: What about the “Heart rate measured in conscious animals (in words)” value ([2]; moxonidine-treated infarct rats versus sham rats) of the same molecule?
A: The value was “slowing of cardiac activity (bradycardia) compared to the sham rats”.

Q: What about the “Body weight (in words)” value ([2]; moxonidine-treated infarct rats versus untreated infarct rats and sham rats) of the same molecule?
A: Its value is “slightly lower body weight than the untreated infarct rats”.

Q: And the “Cardiac weight (in words)” value ([2]; moxonidine-treated infarct rats versus untreated infarct rats, dosage depending 3 to 6 mg/kg·day)?
A: Its value is “significantly lower than the cardiac weight of untreated infarct rats”.

Q: And the “Total mortality of the experimental animals” value ([2]; the same in both infarct groups (treated and untreated))?
A: Its value is 29%.

Q: And the “Interstitial Collagen” value ([3]; moxonidine 3 mg/kg daily s.c.)?
A: The value was 2.4 ± 0.2 %.

Q: And the “Interstitial Collagen” value ([3]; moxonidine 6 mg/kg daily s.c.)?
A: The value was 1.4 ± 0.1%.
